Assay results reported in ChEMBL document CHEMBL2046416, “An amino-indazole scaffold with spectrum selective kinase inhibition of FLT3, PDGFRα and kit” (Bioorg Med Chem Lett, 2012).

Legend:
BaF3 [1] = experiment: Antiproliferative activity against mouse BAF3 cells expressing PDGFRalpha T674M mutant gene; format: functional, cell-based
BaF3 [2] = experiment: Antiproliferative activity against mouse BAF3 cells expressing Kit […] mutant gene; format: functional, cell-based
BaF3 [3] = experiment: Antiproliferative activity against wild type mouse BAF3 cells; format: cell-based
MOLT-3 = experiment: Antiproliferative activity against human MOLT3 cells expressing FLT3 gene; format: functional, cell-based

Measured: EC50

O=C(NCCN1CCOCC1)c1cccc(-c2ccc3c(NC(=O)C4CC4)n[nH]c3c2)c1
> 10 µM: all assays above
